Bounds are passed on as bounds.

In one assay the test system is JAK1/TYK2 pSTAT5 (Tyr694/699) in THP-1 cell line. Put plainly: IFNa-stimulated JAK1/TYK2 pSTAT5 (Tyr694/699) inhibition cellular assay, AlphaLISA. It is filed as cell-based. Conditions: Homo sapiens; THP-1 cells, IFNa-stimulated pSTAT5 (Tyr694/699), AlphaLISA (Assay B); read-out: Cellular_THP1_IFNa-pSTATS_TYK2. How it is done:
Assay B: JAK1/TYK2 pSTAT5 (Tyr694/699) inhibition IC50 Cellular Assays
To evaluate the inhibition effect of compounds disclosed herein against TYK2, an IFNa-stimulated JAE1/TYK2 pSTAT5 (Tyr694/699) quantification assay was conducted in the THP-1 cell line using an AlphaLISA detection method (PerkinElmer ALSU-PST5). Compounds in DMSO were serially diluted in a 96-well plate (10 mM starting concentration, 6-fold dilutions, 8 concentrations total) prior to dispensing of 8 nL into a 384-well plate using an I.DOT non-contact liquid handler (Dispendix). Cells were collected via centrifugation at 300 ref for 5 min and resuspended in Hanks' Balanced Salt Solution (Gibco 14175-079), and 6 μl containing 2e4 cells was dispensed into each well of the 384-well plate containing test compounds or DMSO alone (final concentrations: 10000, 1666.67, 277.78, 46.30, 7.72, 1.29, 0.21 and 0.04 nM). Cells were then incubated for 1 h at 37° C. with 5% CO2 prior to the addition of 2 μL IFNa (100 ng/mL; PBL Assay Science 11175-1). Following an additional 30 min incubation at 37° C. with 5% CO2, 2 μL of 5× lysis buffer was added to each well using the I.DOT […]. Plates were sealed and incubated at RT for 10 min on a plate shaker set to 400 RPM. Cell lysates were then frozen at −80° C. before subsequent detection of pSTAT5 by AlphaLISA. At the time of the detection assay, cell lysates were thawed for 5 min at room temperature and then on a plate shaker set to 400 RPM for an additional 10 min. Following the manufacturer recommended protocol (Perkin Elmer), 5 μL of acceptor bead master mix was added to each well; plates were then resealed and incubated for 2 min at RT on a plate shaker (400 rpm) prior to an additional 2-h incubation without agitation (protected from light). Donor bead master mix, 5 uL per well, was then added to each well before 2 min of shaking (RT, 400 rpm) and 2-h incubation (RT, no shaking, protected from light). Levels of pSTAT5 protein were then measured as fluorescent signal at 615 nm with an EnVision multimode plate reader (Perkin Elmer). IC50 values were calculated in Dotmatics using the four-parameter logistic curve regression model with bottom fixed to 0 and Hill Slope fixed to −1.
Turning to `CNc1ncc(-c2nc3ncc(C)cc3o2)c2cc(NC(=O)C3CC3)ncc12` [Example 1104, N-(8-(methylamino)-5-(6-methyloxazolo[4,5-b]pyridin-2-yl)-2,7-naphthyridin-3-yl)cyclopropanecarboxamide], the IC50 is ≤ 500 nM.
In the case of `CNc1ncc(C#Cc2nccc3cc(F)ccc23)c2cc(NC(=O)C3CC3)ncc12` [Example 1135, N-(5-((6-fluoroisoquinolin-1-yl)ethynyl)-8-(methylamino)-2,7-naphthyridin-3-yl)cyclopropanecarboxamide], the IC50 is ≤ 500 nM.
Still for that read-out and setting: then `CNc1ncc(C#Cc2ccc3c(=O)n(C)ccc3c2)c2cc(NC(=O)C3CC3)ncc12` [Example 1136, N-(5-((2-methyl-1-oxo-1,2-dihydroisoquinolin-6-yl)ethynyl)-8-(methylamino)-2,7-naphthyridin-3-yl)cyclopropanecarboxamide], with ≤ 500 nM; and `CNc1ncc(C#Cc2cccc3c2CNCC3)c2cc(NC(=O)C3CC3)ncc12` [Example 1137, N-(8-(methylamino)-5-((1,2,3,4-tetrahydroisoquinolin-8-yl)ethynyl)-2,7-naphthyridin-3-yl)cyclopropanecarboxamide], with > 500 nM.
Turning to `CNc1ncc(C#Cc2cn(C(F)F)c(C)n2)c2cc(NC(=O)[C@H]3C[C@H]3C)ncc12` [Example 1139, (1S,2R)—N-(5-((1-(difluoromethyl)-2-methyl-1H-imidazol-4-yl)ethynyl)-8-(methylamino)-2,7-naphthyridin-3-yl)-2-methylcyclopropanecarboxamide], the IC50 was ≤ 500 nM.
The same measure, in the same setting: then `CNc1ncc(C#Cc2cnc(C)n2C(F)F)c2cc(NC(=O)[C@H]3C[C@H]3C)ncc12` [Example 1140, (1S,2R)—N-(5-((1-(difluoromethyl)-2-methyl-1H-imidazol-5-yl)ethynyl)-8-(methylamino)-2,7-naphthyridin-3-yl)-2-methylcyclopropanecarboxamide], with ≤ 500 nM.

Still in this assay, the particulars now being: Homo sapiens; THP-1 cells, IFNa-stimulated, AlphaLISA (Assay B); read-out: Cellular_THP1_IFNa-pSTATS_TYK2.
For `CNc1ncc(C#Cc2ccc(Cn3cccn3)cn2)c2cc(NC(=O)C3CC3)ncc12` [Example 907, N-(5-((5-((1H-pyrazol-1-yl)methyl)pyridin-2-yl)ethynyl)-8-(methylamino)-2,7-naphthyridin-3-yl)cyclopropanecarboxamide], the IC50 is ≤ 500 nM.
Turning to `CNc1ncc(C#Cc2ccc(Cn3nccn3)cn2)c2cc(NC(=O)C3CC3)ncc12` [Example 908, N-(5-((5-((2H-1,2,3-triazol-2-yl)methyl)pyridin-2-yl)ethynyl)-8-(methylamino)-2,7-naphthyridin-3-yl)cyclopropanecarboxamide], the IC50 is ≤ 500 nM.
On the same count and under the same terms, then `CNc1ncc(C#Cc2ccc(Cn3ccnn3)cn2)c2cc(NC(=O)C3CC3)ncc12` [Example 909, N-(5-((5-((1H-1,2,3-triazol-1-yl)methyl)pyridin-2-yl)ethynyl)-8-(methylamino)-2,7-naphthyridin-3-yl)cyclopropanecarboxamide], with ≤ 500 nM; and `CNc1ncc(C#Cc2ccc(C(C)(C)C#N)cc2)c2cc(NC(=O)C3CC3)ncc12` [Example 910, N-(5-((4-(2-cyanopropan-2-yl)phenyl)ethynyl)-8-(methylamino)-2,7-naphthyridin-3-yl)cyclopropanecarboxamide], with ≤ 500 nM.
On the same count and under the same terms, the same measure for `CNc1ncc(C#Cc2ccc(CC#N)cn2)c2cc(NC(=O)C3CC3)ncc12` [Example 911, N-(5-((5-(cyanomethyl)pyridin-2-yl)ethynyl)-8-(methylamino)-2,7-naphthyridin-3-yl)cyclopropanecarboxamide]: ≤ 500 nM.
The same measure, in the same setting: the same measure for `CNc1ncc(C#Cc2ccc(CN3CC(OC)C3)cn2)c2cc(NC(=O)C3CC3)ncc12` [Example 912, N-(5-((5-((3-methoxyazetidin-1-yl)methyl)pyridin-2-yl)ethynyl)-8-(methylamino)-2,7-naphthyridin-3-yl)cyclopropanecarboxamide]: ≤ 500 nM.

Source of the values: patent US20240025906A1 (NEURON23, INC., priority 2022, published 2024).
